Values joined by “and” are separate entries in the source; they are usually repeats but may differ in a detail not shown here. Equal entries are not always repeated. “Also recorded” adds a separate entry of the source.
Columns and labels:
[1] = system: gastrointestinal activity in methadone-dependent subjects; test: Methadone maintenance subjects: laxation and oral-cecal transit time; type: in vivo, human
Text: The aims of this first-in-human study were to examine the pharmacokinetics of 6β-naltrexol to measure two key characteristics of 6β-naltrexol in highly opioid dependent persons: unwanted aspects of opioid antagonism such as withdrawal, and preferential suppression of opioid effects on the gastrointestinal tract compared to the central nervous system. Eight subjects were enrolled. Of these subjects, four were ineligible for dosing with 6β-naltrexol: three due to small bowel bacterial overgrowth and one due to difficulty with IV catheter insertion. […] The remaining two subjects tolerated the 1.0 mg dose and reported a willingness to take higher doses of 6β-naltrexol.
Laxation was experienced for one subject (25%; 101 minutes post dose) at the 0.05 mg dose, three subjects (75%; 2, 17, and 40 minutes post dose) at the 0.5 mg dose, and two subjects (67%; both at 5 minutes post dose) at the 1.0 mg dose. […] In the two subjects who did undergo oral-cecal transit time testing (lactulose/H2 test), 6β-naltrexol accelerated GI transit time at doses of 0.25 mg and above. A quantitative evaluation of this test was not possible because of insufficient number of subjects (data from only two subjects were evaluable, while a third subject had elevated base-line H2 levels, and a fourth subject was not tested), but a detectable reversal of GI slowing at 0.25 mf 6β-naltrexol is consistent with the finding that regulator bowel movement occurred with two subjects at 0.5 mg 6β-naltrexol.

[2] = system: hydrocodone induced GI inhibition; test: GI transit assay (charcoal meal): reversal of hydrocodone induced GI inhibition
[3] = system: hydrocodone-induced antinociception; test: 55° C. warm-water tail-flick assay: inhibition of hydrocodone-induced antinociception; type: in vivo, mice; conditions: for time of peak effect of antinociception inhibition: hydrocodone 3.2 mg/kg i.v.
[4] = Tolerability of i.v. 6β-naltrexol infusion in opioid-naïve volunteers; conditions: i.v. infusion over 30 minutes, up to 20 mg
[5] = system: stereotypic circling induced by morphine; conditions: non-dependent and chronically dependent mice; cited from earlier work
[6] = system: morphine-induced slowing of gastrointestinal transit; test: Oral-cecal transit time (lactulose-hydrogen breath test) with 10 mg morphine i.v.; type: in vivo, human
[7] = Neutral antagonist comparison (Table 3)
[8] = Oral bioavailability of the neutral antagonists
[9] = 6β-naltrexol plasma pharmacokinetics after i.v. infusion, opioid-naïve volunteers (eIND); conditions: humans
[10] = system: morphine-induced analgesia; test: Cold pressor test with 10 mg morphine i.v.; type: in vivo, human; conditions: doses up to 20 mg i.v.
[11] = system: opioid withdrawal in methadone-dependent subjects; test: Double-blind ascending dose study in methadone maintenance subjects: withdrawal scales, VAS, vital signs, pupillometry, tolerability; conditions: for tolerability: b346: at all but the highest dose (1.0 mg)
[12] = Concentrations in plasma and brain tissue after i.p. injection (LC/MS/MS); conditions: for plasma concentration as metabolite after the naltrexone dose: after naltrexone 1 mg/kg i.p.
[13] = system: hydrocodone effects: GI transit (peripheral) vs. antinociception (central); test: Peripheral vs. central potency, (antinociception ID50)/(GI transit ID50); type: in vivo, mice
[14] = antagonist p.o. co-administered with hydrocodone A90 32 mg/kg p.o.
[15] = 1 mg/kg i.p., 60 min after injection
[16] = 10 mg/kg i.p., 10 min after injection
[17] = 10 mg/kg i.p., 60 min after injection

With 6β-naltrexol the subjects experiencing laxation ([1]; 0.05 mg dose) was 25%, the “time of laxation post dose” value ([1]; 0.05 mg dose) was 101 min and the subjects experiencing laxation ([1]; 0.5 mg dose) was 75%. The “effect on bowel movement” value ([1]; 0.5 mg i.v.) was “near normal bowel movement; also recorded: immediate bowel movement”, the subjects experiencing laxation ([1]; 1.0 mg dose) was 67% and the “time of laxation post dose” value ([1]; 1.0 mg dose, both subjects) was 5 min. For the same substance, the “Lowest dose producing laxation” value ([1]; individual patients) was 0.5 mg (2×) and 0.05 mg, the “dose sufficient initially to cause laxation” value ([1]; iv, methadone maintenance patients) was 0.5 mg and the “doses accelerating GI transit time (lactulose/H2 test)” value ([1]; two evaluable subjects) was at least 0.25 mg. For the same substance, the “GI Transit ID50” value ([2]; antagonist i.v., hydrocodone A90 3.2 mg/kg i.v.) was 0.0443 mg/kg, the “GI Transit ID50” value [2, 14] was 1.290 mg/kg and the “GI Transit ID50” value ([2]; antagonist p.o., hydrocodone A90 3.2 mg/kg i.v.) was 0.410 mg/kg. For the same substance, the induction of diarrhea ([2]; on administration of the antagonist) was “absent”, the “Antinociception ID50” value ([3]; antagonist i.v. pretreatment, hydrocodone A90 3.2 mg/kg i.v.) was 0.222 mg/kg and the “Antinociception ID50” value [3, 14] was 12.3 mg/kg. For the same substance, the “Antinociception ID50” value ([3]; antagonist p.o. pretreatment, hydrocodone A90 3.2 mg/kg i.v.) was 2.35 mg/kg, the “time of peak effect of antinociception inhibition” value ([3]; i.v. administration) was 90 min and the “time of peak effect of antinociception inhibition” value ([3]; p.o. administration) was 120 min. The tolerability [4] was “well tolerated”, the “effect on stereotypic circling induced by morphine” value [5] was “prevents” and the “effect of 20 mg on morphine's GI effects” value ([6]; 20 mg i.v., 10 mg morphine i.v.) was “completely blocking; also recorded: completely suppressing”. For the same substance, the “peripheral over central potency” value ([6]; humans) was “at least tenfold”, the “Half-life of active metabolites” value [7] was 12 h and the “Bioavailability for CNS (central) effects” value ([7]; given orally) was about 25%. The “Strength (as compared to 6β-naltrexol)” value ([7]; given orally, opioid agonist naïve or non-dependent subject) was 1, the “oral bioavailability (into the circulation), estimated” value ([8]; humans, estimated) was “approximately 25%” and the bioavailability ([8]; rodent, previously determined data not shown) was 14%. The oral bioavailability ([8]; species not stated) was about 20%, the “blood half-life relative to most commonly used oral opioid analgesic formulations” value [9] was 3-4 times and the “mean terminal plasma elimination half-life” value ([9]; i.v. infusion 3 mg or 10 mg) was 11.1 ± 2.4 h. The “effect on morphine-induced analgesia” value [10] was “no detectable effect”, the withdrawal symptoms ([11]; 0.5 mg i.v., methadone-dependent subjects) was “minimal peripheral withdrawal and no detectable CNS withdrawal” and the “subjects tolerating the dose rather well” value ([11]; 1 mg i.v.) was 3 of 4. The “overall withdrawal (VAS, SOWS, OOWS, vital signs)” value ([11]; 0.05-1.0 mg) was “minimal”, the tolerability ([11]; 0.05-1.0 mg) was “well tolerated” and the tolerability ([11]; 0.05-1.0 mg, listed as 6β-Naltrexol) was “generally well tolerated”. For the same substance, the “Diastolic BP, peak value” ([11]; dose 0.05 mg) was 83.0 ± 5.9 mmHg, the “Heart Rate, peak value” ([11]; dose 0.05 mg) was 61.8 ± 6.2 bpm and the “SOWS (total), peak value” ([11]; dose 0.05 mg) was 0.8 ± 1.0. The “Systolic blood pressure (BP), peak value” ([11]; dose 0.05 mg) was 121.3 ± 7.0 mmHg, the “VAS Any Drug Effect, peak value” ([11]; dose 0.05 mg) was 0.5 ± 1.0 and the “VAS Bad Drug Effect, peak value” ([11]; dose 0.05 mg) was 0.8 ± 1.5. For the same substance, the “VAS Good Drug Effect, peak value” ([11]; dose 0.05 mg) was 0.3 ± 0.5, the “VAS Opioid Withdrawal, peak value” ([11]; dose 0.05 mg) was 1.3 ± 2.5 and the “VAS Sickness, peak value” ([11]; dose 0.05 mg) was 0.50 ± 1.00. For the same substance, the “OOWS (total), peak value” ([11]; dose 0.05 mg, mean ± standard deviation) was 0.8 ± 0.5, the “Diastolic BP, peak value” ([11]; dose 0.15 mg) was 76.5 ± 5.1 mmHg and the “Heart Rate, peak value” ([11]; dose 0.15 mg) was 59.5 ± 2.9 bpm. The “OOWS (total), peak value” ([11]; dose 0.15 mg) was 1.5 ± 0.6, the “SOWS (total), peak value” ([11]; dose 0.15 mg) was 1.3 ± 1.9 and the “Systolic blood pressure (BP), peak value” ([11]; dose 0.15 mg) was 118.5 ± 10.0 mmHg. For the same substance, the “VAS Any Drug Effect, peak value” ([11]; dose 0.15 mg) was 1.5 ± 1.7, the “VAS Bad Drug Effect, peak value” ([11]; dose 0.15 mg) was 17.9 ± 32.5 and the “VAS Good Drug Effect, peak value” ([11]; dose 0.15 mg) was 2.2 ± 2.8. For the same substance, the “VAS Opioid Withdrawal, peak value” ([11]; dose 0.15 mg) was 1.4 ± 1.3, the “VAS Sickness, peak value” ([11]; dose 0.15 mg) was 9.3 ± 17.2 and the “Diastolic BP, peak value” ([11]; dose 0.5 mg) was 80.3 ± 5.7 mmHg. For the same substance, the “Heart Rate, peak value” ([11]; dose 0.5 mg) was 61.8 ± 5.7 bpm, the “OOWS (total), peak value” ([11]; dose 0.5 mg) was 3.5 ± 1.3 and the “SOWS (total), peak value” ([11]; dose 0.5 mg) was 4.3 ± 2.2. The “Systolic blood pressure (BP), peak value” ([11]; dose 0.5 mg) was 118.8 ± 7.6 mmHg, the “VAS Any Drug Effect, peak value” ([11]; dose 0.5 mg) was 34.3 ± 15.7 and the “VAS Bad Drug Effect, peak value” ([11]; dose 0.5 mg) was 42.5 ± 23.7. The “VAS Good Drug Effect, peak value” ([11]; dose 0.5 mg) was 6.5 ± 12.3, the “VAS Opioid Withdrawal, peak value” ([11]; dose 0.5 mg) was 21.0 ± 29.7 and the “VAS Sickness, peak value” ([11]; dose 0.5 mg) was 15.8 ± 18.1. The “Diastolic BP, peak value” ([11]; dose 1.0 mg) was 88.3 ± 12.7 mmHg, the “Heart Rate, peak value” ([11]; dose 1.0 mg) was 71.7 ± 4.9 bpm and the “OOWS (total), peak value” ([11]; dose 1.0 mg) was 5.3 ± 4.0. For the same substance, the “SOWS (total), peak value” ([11]; dose 1.0 mg) was 4.3 ± 2.8, the “Systolic blood pressure (BP), peak value” ([11]; dose 1.0 mg) was 134.7 ± 26.4 mmHg and the “VAS Any Drug Effect, peak value” ([11]; dose 1.0 mg) was 24.0 ± 21.7. The “VAS Bad Drug Effect, peak value” ([11]; dose 1.0 mg) was 26.9 ± 33.0, the “VAS Good Drug Effect, peak value” ([11]; dose 1.0 mg) was 1.0 ± 0.0 and the “VAS Opioid Withdrawal, peak value” ([11]; dose 1.0 mg) was 13.1 ± 8.1. For the same substance, the “VAS Sickness, peak value” ([11]; dose 1.0 mg) was 9.0 ± 5.6, the “Would continue after highest dose” value ([11]; individual patients) was “No and Yes (3×)” and the “pupillometry measures (a CNS effect)” value ([11]; up to 1 mg) was “unaffected”. For the same substance, the Brain concentration ([12]; 1 mg/kg i.p., 10 min after injection) was 7 ± 6 ng/g, the Plasma concentration ([12]; 1 mg/kg i.p., 10 min after injection, mean±SD, n=3) was 61 ± 7 ng/mL and the Brain concentration [12, 15] was 9 ± 1 ng/g. It also gave a Plasma concentration [12, 15] of 24 ± 28 ng/mL, a Brain concentration [12, 16] of 89 ± 6 ng/g and a Plasma concentration [12, 16] of 857 ± 122 ng/mL. For the same substance, the Brain concentration [12, 17] was 74 ± 14 ng/g, the Plasma concentration [12, 17] was 75 ± 25 ng/mL and the “change of levels at 60 min from those measured at 10 min” value ([12]; after i.p. injection) was “had not changed”. For the same substance, the “plasma concentration as metabolite after the naltrexone dose” value ([12]; 10 min) was 1.9 ng/mL, the “plasma concentration as metabolite after the naltrexone dose” value ([12]; 60 min) was 1.7 ng/mL and the “detectability as metabolite after the naltrexone dose” value ([12]; plasma and brain tissue, method sensitive to approximately 1 ng/mL (g)) was “detectable in plasma but not brain tissue”. For the same substance, the “Fold-Shift (antinociception ID50)/(GI transit ID50)” value ([13]; antagonist p.o./hydrocodone p.o. co-administered) was 9.53 and 9.5, the “selectivity in blocking peripheral over central opioid effects” value ([13]; mice, oral administration, earlier experiments) was “approximately tenfold” and the “therapeutic window (peripheral side effects reduced without inhibition of analgesia)” value ([13]; mouse, orally co-administered with hydrocodone) was 0.1 to 3.0 mg/kg. The “fold more potent peripherally than centrally” value ([13]; over all administration routes) was 5-10 fold.
